Assay results taken from PubChem BioAssay (NCI).
Values joined by “and” are separate entries in the source; they are usually repeats but may differ in a detail not shown here. Identical values can stand only once.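 Where inhibition never reached the appropriate level, the endpoint shown equals the highest concentration tested. Otherwise, values were interpolated linearly from a five-concentration, 48-hour dose response in 96-well plates. GI50: concentration for 50% inhibition of growth. Definition used: TGI = concentration required for complete inhibition of growth.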

Key:
Experiment in all cases: NCI tumour cell line growth inhibition, 48 h
A498 renal = system: A498 renal
A549 NSCLC = system: A549 NSCLC
ACHN renal = system: ACHN renal
CAKI-1 renal = system: CAKI-1 renal
COLO 205 colon = system: COLO 205 colon
DU-145 prostate = system: DU-145 prostate
EKVX NSCLC = system: EKVX NSCLC
HCC-2998 colon = system: HCC-2998 colon
HCT-116 colon = system: HCT-116 colon
HCT-15 colon = system: HCT-15 colon
HOP-62 NSCLC = system: HOP-62 NSCLC
HS 578T breast = system: HS 578T breast
HT29 colon = system: HT29 colon
IGROV1 ovarian = system: IGROV1 ovarian
KM12 colon = system: KM12 colon
LOX IMVI melanoma = system: LOX IMVI melanoma
M14 melanoma = system: M14 melanoma
MDA-MB-231 breast = system: MDA-MB-231 breast
MDA-MB-435 = system: MDA-MB-435
MDA-N = system: MDA-N
NCI-H226 lung = system: NCI-H226 lung
NCI-H23 lung = system: NCI-H23 lung
NCI-H460 lung = system: NCI-H460 lung
NCI/ADR-RES ovarian = system: NCI/ADR-RES ovarian
OVCAR-3 ovarian = system: OVCAR-3 ovarian
OVCAR-4 ovarian = system: OVCAR-4 ovarian
OVCAR-5 ovarian = system: OVCAR-5 ovarian
OVCAR-8 ovarian = system: OVCAR-8 ovarian
PC-3 prostate = system: PC-3 prostate
RPMI-8226 leukemia = system: RPMI-8226 leukemia
SF-295 CNS = system: SF-295 CNS
SK-MEL-2 melanoma = system: SK-MEL-2 melanoma
SK-MEL-28 melanoma = system: SK-MEL-28 melanoma
SK-MEL-5 melanoma = system: SK-MEL-5 melanoma
SK-OV-3 ovarian = system: SK-OV-3 ovarian
SN12C renal = system: SN12C renal
SNB-19 CNS = system: SNB-19 CNS
SNB-75 CNS = system: SNB-75 CNS
SW-620 colon = system: SW-620 colon
T-47D breast = system: T-47D breast
TK-10 renal = system: TK-10 renal
U251 CNS = system: U251 CNS
UACC-257 melanoma = system: UACC-257 melanoma
UACC-62 melanoma = system: UACC-62 melanoma
UO-31 renal = system: UO-31 renal
786-0 renal = system: 786-0 renal
BT-549 breast = system: BT-549 breast
HOP-92 NSCLC = system: HOP-92 NSCLC
MALME-3M melanoma = system: MALME-3M melanoma
MCF7 breast = system: MCF7 breast
MOLT-4 leukemia = system: MOLT-4 leukemia
NCI-H522 lung = system: NCI-H522 lung
RXF 393 renal = system: RXF 393 renal
SF-268 CNS = system: SF-268 CNS
SF-539 CNS = system: SF-539 CNS

Q: For CN(C)CC(NC(NCS)C(=O)NCCNc1ccc(NCCNC(=O)C(NCS)NC(CN(C)C)OCCl)c2c1C(=O)c1c(O)ccc(O)c1C2=O)OCCl (centres undefined), which TGI (A498 renal) is on record?
A: The TGI was 2760 nM.

Q: And the TGI (A549 NSCLC)?
A: The TGI was 1540 nM.

Q: And the TGI (ACHN renal)?
A: The TGI was 194 nM.

Q: What about the TGI (CAKI-1 renal) of the same compound?
A: Its TGI is 119 nM.

Q: What about the TGI (COLO 205 colon) of the same compound?
A: Its TGI is 3280 nM.

Q: And the GI50 (DU-145 prostate)?
A: The GI50 was 16.2 nM.

Q: And the TGI (DU-145 prostate)?
A: The TGI was 977 nM and 287 nM.

Q: What about the GI50 (EKVX NSCLC) of the same compound?
A: The GI50 was 516 nM.

Q: And the TGI (EKVX NSCLC)?
A: The TGI was 1260 nM and 2510 nM.

Q: And the TGI (HCC-2998 colon)?
A: Its TGI is 1860 nM.

Q: What about the TGI (HCT-116 colon) of the same compound?
A: The TGI was 1720 nM.

Q: What about the GI50 (HCT-15 colon) of the same compound?
A: The GI50 was 89.2 nM.

Q: And the TGI (HCT-15 colon)?
A: Its TGI is 1730 nM and 1740 nM.

Q: What about the TGI (HOP-62 NSCLC) of the same compound?
A: Its TGI is 482 nM.

Q: And the TGI (HS 578T breast)?
A: The TGI was 3050 nM.

Q: And the GI50 (HT29 colon)?
A: The GI50 was 228 nM.

Q: What about the TGI (HT29 colon) of the same compound?
A: The TGI was 278 nM and 1580 nM.

Q: What about the TGI (IGROV1 ovarian) of the same compound?
A: Its TGI is 2490 nM.

Q: And the GI50 (KM12 colon)?
A: Its GI50 is 211 nM.

Q: What about the TGI (KM12 colon) of the same compound?
A: The TGI was 1530 nM and 1840 nM.

Q: What about the TGI (LOX IMVI melanoma) of the same compound?
A: The TGI was 1850 nM.

Q: What about the GI50 (M14 melanoma) of the same compound?
A: The GI50 was 506 nM.

Q: What about the GI50 (MDA-MB-231 breast) of the same compound?
A: Its GI50 is 1050 nM.

Q: And the TGI (MDA-MB-231 breast)?
A: Its TGI is 305 nM and 2680 nM.

Q: And the TGI (MDA-MB-435)?
A: The TGI was 1450 nM.

Q: And the TGI (MDA-N)?
A: The TGI was 1090 nM.

Q: What about the GI50 (NCI-H226 lung) of the same compound?
A: Its GI50 is 285 nM.

Q: What about the TGI (NCI-H226 lung) of the same compound?
A: Its TGI is 418 nM and 1610 nM.

Q: And the TGI (NCI-H23 lung)?
A: Its TGI is 111 nM.

Q: What about the TGI (NCI-H460 lung) of the same compound?
A: Its TGI is 944 nM.

Q: And the GI50 (NCI/ADR-RES ovarian)?
A: Its GI50 is 287 nM.

Q: And the TGI (NCI/ADR-RES ovarian)?
A: The TGI was 4990 nM and 5040 nM.

Q: And the GI50 (OVCAR-3 ovarian)?
A: The GI50 was 1360 nM.

Q: What about the GI50 (OVCAR-4 ovarian) of the same compound?
A: Its GI50 is 373 nM.

Q: And the TGI (OVCAR-4 ovarian)?
A: The TGI was 2780 nM and 1300 nM.

Q: What about the GI50 (OVCAR-5 ovarian) of the same compound?
A: The GI50 was 713 nM.

Q: And the GI50 (OVCAR-8 ovarian)?
A: The GI50 was 43.6 nM.

Q: What about the TGI (PC-3 prostate) of the same compound?
A: Its TGI is 1460 nM.

Q: And the TGI (RPMI-8226 leukemia)?
A: Its TGI is 30 nM.

Q: And the TGI (SF-295 CNS)?
A: The TGI was 1390 nM.

Q: And the TGI (SK-MEL-2 melanoma)?
A: The TGI was 2990 nM.

Q: What about the GI50 (SK-MEL-28 melanoma) of the same compound?
A: Its GI50 is 2180 nM.

Q: And the TGI (SK-MEL-5 melanoma)?
A: The TGI was 940 nM.

Q: And the TGI (SK-OV-3 ovarian)?
A: The TGI was 4110 nM.

Q: And the GI50 (SN12C renal)?
A: The GI50 was less than 1 nM.

Q: And the TGI (SN12C renal)?
A: Its TGI is 477 nM.

Q: What about the TGI (SNB-19 CNS) of the same compound?
A: The TGI was 1960 nM.

Q: And the GI50 (SNB-75 CNS)?
A: The GI50 was 38.7 nM.

Q: What about the TGI (SNB-75 CNS) of the same compound?
A: Its TGI is 1770 nM and 990 nM.

Q: And the TGI (SW-620 colon)?
A: Its TGI is 1250 nM.

Q: What about the TGI (T-47D breast) of the same compound?
A: The TGI was 1620 nM.

Q: What about the GI50 (TK-10 renal) of the same compound?
A: Its GI50 is 340 nM.

Q: What about the TGI (TK-10 renal) of the same compound?
A: Its TGI is 2440 nM.

Q: And the TGI (U251 CNS)?
A: Its TGI is 57.5 nM.

Q: And the TGI (UACC-257 melanoma)?
A: Its TGI is 3600 nM.

Q: And the TGI (UACC-62 melanoma)?
A: Its TGI is 1600 nM.

Q: And the TGI (UO-31 renal)?
A: The TGI was 1520 nM.

Q: What does the source list for CC(C)CCC/C(CBr)=C(\Cl)CCl?
A: TGI (786-0 renal): 3670 nM; TGI (A498 renal): 35200 nM; TGI (A549 NSCLC): 31000 nM; TGI (ACHN renal): 23300 nM; TGI (BT-549 breast): 3520 nM; TGI (CAKI-1 renal): 9350 nM; TGI (COLO 205 colon): 3540 nM; TGI (DU-145 prostate): 17200 nM; TGI (EKVX NSCLC): 30300 nM; TGI (HCC-2998 colon): 21000 nM; TGI (HCT-116 colon): 7030 nM; TGI (HCT-15 colon): 11400 nM; TGI (HOP-62 NSCLC): 20800 nM; TGI (HOP-92 NSCLC): 4540 nM; TGI (HS 578T breast): 7460 nM; TGI (HT29 colon): 5970 nM; TGI (IGROV1 ovarian): 4050 nM; TGI (KM12 colon): 5510 nM; TGI (LOX IMVI melanoma): 542 nM; TGI (M14 melanoma): 4230 nM; TGI (MALME-3M melanoma): 7880 nM; TGI (MCF7 breast): 12900 nM; TGI (MDA-MB-231 breast): 8340 nM; TGI (MDA-MB-435): 6250 nM; TGI (MDA-N): 3910 nM; TGI (MOLT-4 leukemia): 2880 nM; TGI (NCI-H226 lung): 25700 nM; TGI (NCI-H23 lung): 8110 nM; TGI (NCI-H460 lung): 18500 nM; TGI (NCI-H522 lung): 409 nM; TGI (NCI/ADR-RES ovarian): 10700 nM; TGI (OVCAR-3 ovarian): 6730 nM; TGI (OVCAR-4 ovarian): 2930 nM; TGI (OVCAR-5 ovarian): 29100 nM; TGI (OVCAR-8 ovarian): 3860 nM; TGI (PC-3 prostate): 13200 nM; TGI (RXF 393 renal): 8170 nM; TGI (SF-268 CNS): 9890 nM; TGI (SF-295 CNS): 26500 nM; TGI (SF-539 CNS): 23600 nM; TGI (SK-MEL-2 melanoma): 2970 nM; TGI (SK-MEL-28 melanoma): 5190 nM; TGI (SK-MEL-5 melanoma): 6000 nM; TGI (SK-OV-3 ovarian): 22300 nM; TGI (SN12C renal): 8850 nM; TGI (SNB-19 CNS): 28600 nM; TGI (SNB-75 CNS): 4710 nM; TGI (SW-620 colon): 3070 nM; TGI (TK-10 renal): 3720 nM; TGI (U251 CNS): 13400 nM; TGI (UACC-257 melanoma): 4780 nM; TGI (UO-31 renal): 8400 nM
